Assay type in all cases: cell-based
Test [1] has as its system rat primary cortical neurones. Nature of the test: Reversal of glutamate-induced neurodegeneration (LDH), treatment after glutamate exposure. The following applies: LDH after 24 h, control = 100. The protocol:
(§1) Neuronal cell survival was evaluated by measuring lactate dehydrogenase (LDH) activity released in the media 24 h after test compound treatment or glutamate+test compound exposure, using the CytoTox 96 non-radioactive kit and quantitated by measuring wavelength absorbance at 450 nm.
As above mentioned, exposure of rat primary cortical cultures to glutamate (100 μM; 10 min) caused an increase in lactate dehydrogenase (LDH) activity measured after 24 h, indicating a significant neurodegeneration.

The subject of test [2] is rat primary cortical neurones. The test is described as follows: Prevention of glutamate-induced neurodegeneration (LDH release), pre-treatment. The following applies: 30 nM, given 24 h before glutamate; LDH 24 h after glutamate; control = 100. The protocol:
The objective of this study was to examine the effects of sarsasapogenin, episarsasapogenin cathylate, episarsasapogenin, epismilagenin and smilagenin on the survival of rat primary cortical neurones exposed to glutamate, which is known to induce neuro degeneration.
Rat cortical neurones were cultured for 10 days; at day 10 the medium was changed to a serum-free defined medium. On day 12, 24 hours before glutamate exposure, cultures were washed and medium was replaced with fresh medium containing positive control (β-oestradiol), test compounds (sarsasapogenin, episarsasapogenin cathylate, episarsasapogenin, epismilagenin and smilagenin) or vehicle control (DMSO, 0.25%) or diosgenin as negative control.
On day 13, cultures were exposed to glutamate. After the incubation period, the cultures were washed with and placed in fresh medium, supplemented with relevant compounds or vehicle to evaluate their protective effects, 24 h after glutamate exposure.
as §1

In test [3] the test system is rat mesencephalic dopaminergic neurones. The test is described as follows: Pre-treatment of dopaminergic neurones before MPP+ exposure (neuronal survival). The following applies: pre-treatment 30 nM; MPP+ 2 μM; MPP+ alone 55 ± 3. The source says:
Smilagenin and sarsasapogenin prevent the neurodegeneration caused by exposure to the neurotoxin, 1-methyl-4-phenylpyridinium (MPP^+) in rat mesencephalic dopaminergic neurones; a model of Parkinson's disease in vitro.
Glial cell line-derived neurotrophic factor (GDNF) and brain-derived neurotrophic factor (BDNF), molecules that are involved in neuronal growth, were used as positive controls.

Test [4] has as its system rat primary cortical neurones. Nature of the test: Neurite outgrowth in rat primary cortical neurones. Particulars: for Number of neurones displaying neurites, Mean ± s.e.m (%): control 47 ± 2; for Neurite length measured using optical micrometry, Mean ± s.e.m (%): control 100 ± 4. The source says: Neurodegenerative disorders are characterised by a progressive loss of neurones and degradation of neuronal processes (neurites). Agents that induce neurite outgrowth may promote the formation of new connections between neurones and ameliorate the symptoms of neurodegenerative conditions (Katzman et al, Faseb J., 5, 278-286, 1991).

Consider `C[C@@H]1CC[C@@]2(OC1)O[C@H]1C[C@H]3[C@@H]4CC[C@@H]5C[C@@H](O)CC[C@]5(C)[C@H]4CC[C@]3(C)[C@H]1[C@@H]2C` [smilagenin], for which the “Cortical neurones previously exposed to glutamate, Mean ± s.e.m (%)” value is 109 ± 6% in test [1] (3 nM after glutamate 100 μM 10 min) and 104 ± 1% in test [1] (30 nM after glutamate 100 μM 10 min). In test [2], the “Prevention of glutamate-induced neurodegeneration, Mean ± s.e.m (%)” value was found to be 91 ± 4%. Also, the “Dopaminergic neurones after MPP+ exposure (survival), Mean ± s.e.m (%)” value in test [3] came out at 98 ± 4%. In addition, the “Number of neurones displaying neurites, Mean ± s.e.m (%)” value is 63 ± 2% in test [4] (0.3 pM), 63 ± 2% in test [4] (3 pM) and 66 ± 2% in test [4] (30 pM). The “Neurite length measured using optical micrometry, Mean ± s.e.m (%)” value was 159 ± 5% in test [4] (0.3 pM), 190 ± 8% in test [4] (3 pM) and 204 ± 6% in test [4] (30 pM).

The values above are taken from patent publication US20110190249A1, “THERAPEUTIC METHODS AND USES OF SAPOGENINS AND THEIR DERIVATIVES” (PHYTOPHARM PLC, priority 2002, published 2011).
